According to publication PMC7144195, “Synthesis, antitumor activity, and molecular docking study of 2-cyclopentyloxyanisole derivatives: mechanistic study of enzyme inhibition” (Journal of Enzyme Inhibition and Medicinal Chemistry, 2020):
Like-named read-outs stand apart in the source and are kept apart here.

Assays:
[1] = system: MCF-7 cell line; experiment: In vitro antitumor MTT assay, MCF-7; format: cell-based
Method: (§3) The antitumor activity was performed by using the tetrazolium salt 3-(4,5-dimethyl-2-thiazolyl)-2,5-diphenyl-2H-tetrazolium bromide (MTT) assay in accordance with an established method[39].

[2] = system: HePG2 cell line; experiment: In vitro antitumor MTT assay, HePG2; format: cell-based
Method: (§1) The antitumor activity was performed by using the tetrazolium salt 3-(4,5-dimethyl-2-thiazolyl)-2,5-diphenyl-2H-tetrazolium bromide (MTT) assay in accordance with an established method.
(§2) Compounds 3a–c, 4a,b, 5a,b, 6a,b, 7a–e, 8, 9a–c, 10, 11, 12a–c, 13, and 14 were screened for their in vitro antitumor activity by using the standard 3-(4,5-dimethylthiazol-2-yl)-2,5-diphenyltetrazolium bromide (MTT) assay against five human cancers: HePG2, HCT-116, MCF-7, PC3, and HeLa cell lines. […].

[3] = system: PC3 cell line; experiment: In vitro antitumor MTT assay, PC3; format: cell-based
Method: as §3

[4] = system: HeLa cell line; experiment: In vitro antitumor MTT assay, HeLa; format: cell-based
Method: as §1, §2

[5] = system: HCT-116 cell line; experiment: In vitro antitumor MTT assay, HCT-116; format: cell-based
Method: as §3

[6] = system: HePG2, HCT-116, MCF-7, PC3, and HeLa cell lines; experiment: In vitro antitumor MTT assay, panel of five human cancer cell lines (text summaries); format: cell-based; details: for IC50: read-out: IC50, antitumor activity, range over the tested cancer cell lines
Method: as §1, §2

[7] = Homo sapiens, MCF7; read-out: IC50 (µM) MCF-7
[8] = Homo sapiens, HepG2; read-out: IC50 (µM) HePG2
[9] = Homo sapiens, PC-3; read-out: IC50 (µM) PC3
[10] = Homo sapiens; read-out: IC50 (µM) HeLa
[11] = Homo sapiens, HCT-116; read-out: IC50 (µM) HCT-116
[12] = Homo sapiens, range over (all or some of) HePG2, HCT-116, MCF-7, PC3, HeLa
[13] = Homo sapiens, MCF7, read-out: IC50 (µM) MCF-7
[14] = Homo sapiens, HepG2, read-out: IC50 (µM) HePG2
[15] = Homo sapiens, PC-3, read-out: IC50 (µM) PC3
[16] = Homo sapiens, read-out: IC50 (µM) HeLa
[17] = Homo sapiens, HCT-116, read-out: IC50 (µM) HCT-116

## CN(C)C/C=C/C(=O)Nc1cc2c(Nc3ccc(F)c(Cl)c3)ncnc2cc1O[C@H]1CCOC1 [Afatinib, afatinib, reference compound]
[1]; [7]
  IC50: 7.1 ± 0.49 µM
[2]; [8]
  IC50: 5.4 ± 0.25 µM
[3]; [9]
  IC50: 7.7 ± 0.57 µM
[4]; [10]
  IC50: 6.2 ± 0.67 µM
[5]; [11]
  IC50: 11.4 ± 1.26 µM
[6]; [12]
  IC50: 5.4 to 11.4 µM

## COc1ccc(C=C2CCCC2=O)cc1OC1CCCC1 [Compound 3a, 2-(3-(Cyclopentyloxy)-4-methoxybenzylidene)cyclopentanone]
[1]; [7]
  IC50: 56.1 ± 2.6 µM
[2]; [8]
  IC50: 96 ± 5.2 µM
[3]; [9]
  IC50: 51.4 ± 3 µM
[4]; [10]
  IC50: 59.1 ± 3.8 µM
[5]; [11]
  IC50: > 100 µM

## COc1ccc(C=C2CCCCC2=O)cc1OC1CCCC1 [Compound 3b, 2-(3-(Cyclopentyloxy)-4-methoxybenzylidene)cyclohexanone]
[1]; [7]
  IC50: 23.8 ± 1.5 µM
other
  melting point: 245 to 247 °C
[2]; [8]
  IC50: 53.9 ± 3.7 µM
[3]; [9]
  IC50: 19.3 ± 1.8 µM
[4]; [10]
  IC50: 26.1 ± 1.9 µM
[5]; [11]
  IC50: 80.6 ± 3.9 µM

## COc1ccc(C=C2CCCCCC2=O)cc1OC1CCCC1 [Compound 3c, 2-(3-(Cyclopentyloxy)-4-methoxybenzylidene)cycloheptanone]
[1]; [7]
  IC50: > 100 µM
other
  melting point: 250 to 252 °C
[2]; [8]
  IC50: 86.9 ± 4.5 µM
[3]; [9]
  IC50: > 100 µM
[4]; [10]
  IC50: 81.7 ± 4.7 µM
[5]; [11]
  IC50: 93.5 ± 5.1 µM

## COc1ccc(C2NC(=S)NC3=C2CCCC3)cc1OC1CCCC1 (stereo not drawn) [Compound 5a, 4-(3-(Cyclopentyloxy)-4-methoxyphenyl)-3,4,5,6,7,8-hexahydroquinazoline-2(1H)-thione]
[1]; [7]
  IC50: 92.4 ± 5.2 µM
other
  melting point: 199 to 201 °C
[2]; [8]
  IC50: 73.4 ± 3.7 µM
[3]; [9]
  IC50: 79 ± 4.1 µM
[4]; [10]
  IC50: 84.3 ± 4.6 µM
[5]; [11]
  IC50: 66.5 ± 3.8 µM

## COc1ccc(C2NC(=S)NC3=C2CCCCC3)cc1OC1CCCC1 (stereo not drawn) [Compound 5b, 4-(3-(Cyclopentyloxy)-4-methoxyphenyl)-1,3,4,5,6,7,8,9-octahydro-2H-cyclohepta[d]pyrimidine-2-thione]
[1]; [7]
  IC50: 81.2 ± 4.3 µM
[2]; [8]
  IC50: 59.1 ± 3.5 µM
[3]; [9]
  IC50: 55.2 ± 3.1 µM
[4]; [10]
  IC50: 46.3 ± 3 µM
[5]; [11]
  IC50: 61.1 ± 3.6 µM

## COc1ccc(C2NC(=O)NC3=C2C(=O)CC(C)(C)C3)cc1OC1CCCC1 (stereo not drawn) [Compound 6a, 4-(3-(Cyclopentyloxy)-4-methoxyphenyl)-7,7-dimethyl-4,6,7,8-tetrahydroquinazoline-2,5(1H,3H)-dione]
[1]; [7]
  IC50: 28.6 ± 1.6 µM
other
  melting point: 230 to 232 °C
[2]; [8]
  IC50: 18.5 ± 1.7 µM
[3]; [9]
  IC50: 27.4 ± 2.1 µM
[4]; [10]
  IC50: 19.1 ± 1.7 µM
[5]; [11]
  IC50: 30.5 ± 1.8 µM
[6]; [12]
  IC50: 18.5 to 30.5 µM

## COc1ccc(C2NC(=S)NC3=C2C(=O)CC(C)(C)C3)cc1OC1CCCC1 (stereo not drawn) [Compound 6b, 4-(3-(Cyclopentyloxy)-4-methoxyphenyl)-7,7-dimethyl-2-thioxo-2,3,4,6,7,8-hexahydroquinazolin-5(1H)-one]
[1]; [7]
  IC50: 10.3 ± 1.1 µM
other
  melting point: 233 to 235 °C
[2]; [8]
  IC50: 16.1 ± 1.4 µM
[3]; [9]
  IC50: 17.9 ± 1.6 µM
[4]; [10]
  IC50: 13.5 ± 1.4 µM
[5]; [11]
  IC50: 25.4 ± 1.7 µM
[6]; [12]
  IC50: 10.3 to 25.4 µM

## COc1ccc(-c2nc3c4ccccc4c4ccccc4c3[nH]2)cc1OC1CCCC1 [Compound 7a, 2-(3-(Cyclopentyloxy)-4-methoxyphenyl)-1H-phenanthro[9,10-d]imidazole]
[1]; [13]
  IC50: 89.8 ± 4.3 µM
other
  melting point: 290 to 292 °C
[2]; [14]
  IC50: 78.2 ± 4.4 µM
[3]; [15]
  IC50: > 100 µM
[4]; [16]
  IC50: 77.6 ± 4.6 µM
[5]; [17]
  IC50: 90.3 ± 4.9 µM
[6]; Homo sapiens
  IC50: 53.2 to 90.3 µM

## COc1ccc(-c2nc3c4ccccc4c4ccccc4c3n2-c2ccc(C)cc2)cc1OC1CCCC1 [Compound 7c, 2-(3-(Cyclopentyloxy)-4-methoxyphenyl)-1-(4-methylphenyl)-1H-phenanthro[9,10-d]imidazole]
[1]; [13]
  IC50: 65.3 ± 3.4 µM
other
  melting point: 291 to 294 °C
[2]; [14]
  IC50: 57.1 ± 3.9 µM
[3]; [15]
  IC50: 68.1 ± 3.5 µM
[4]; [16]
  IC50: 53.2 ± 3.7 µM
[5]; [17]
  IC50: 81.2 ± 4.2 µM
[6]; Homo sapiens
  IC50: 53.2 to 90.3 µM

## COc1ccc(-c2nc3c4ccccc4c4ccccc4c3n2-c2ccc(F)cc2)cc1OC1CCCC1 [Compound 7d, 2-(3-(Cyclopentyloxy)-4-methoxyphenyl)-1-(4-fluorophenyl)-1H-phenanthro[9,10-d]imidazole]
[1]; [13]
  IC50: > 100 µM
other
  melting point: 290 to 292 °C
[2]; [14]
  IC50: > 100 µM
[3]; [15]
  IC50: > 100 µM
[4]; [16]
  IC50: > 100 µM
[5]; [17]
  IC50: > 100 µM
[6]; all tested cancer cell lines
  antitumor activity against the tested cancer cell lines (in words): no antitumor activity

## COc1ccc(-c2nc3c4ccccc4c4ccccc4c3n2-c2ccc(Cl)cc2)cc1OC1CCCC1 [Compound 7e, 2-(3-(Cyclopentyloxy)-4-methoxyphenyl)-1-(4-chlorophenyl)-1H-phenanthro[9,10-d]imidazole]
[1]; [13]
  IC50: 42.4 ± 2.2 µM
other
  melting point: 294 to 296 °C
[2]; [14]
  IC50: 29.9 ± 2.1 µM
[3]; [15]
  IC50: 47 ± 2.7 µM
[4]; [16]
  IC50: 38.1 ± 2.5 µM
[5]; [17]
  IC50: 44.8 ± 2.3 µM
[6]; Homo sapiens
  IC50: 29.8 to 47 µM

## COc1ccc(C2C3=C(CC(C)(C)CC3=O)NC3=C2C(=O)CC(C)(C)C3)cc1OC1CCCC1 [Compound 8, 9-(3-(Cyclopentyloxy)-4-methoxyphenyl)-3,3,6,6-tetramethyl-3,4,6,7,9,10-hexahydroacridine-1,8(2H,5H)-dione]
[1]; [7]
  IC50: 60.5 ± 2.8 µM
other
  melting point: 286 to 287 °C
[2]; [8]
  IC50: 41.8 ± 3 µM
[3]; [9]
  IC50: 55.8 ± 3.2 µM
[4]; [10]
  IC50: 43.5 ± 2.9 µM
[5]; [11]
  IC50: 70.5 ± 3.5 µM
[6]; [12]
  IC50: 29.8 to 47 µM
[6]; range over (all or some of) HePG2, HCT-116, MCF-7, PC3, HeLa
  IC50: 41.8 to 70.5 µM

## COc1ccc(C(=S)N2CCOCC2)cc1OC1CCCC1 [Compound 9a, (3-(Cyclopentyloxy)-4-methoxyphenyl)(morpholino)methanethione]
[1]; [7]
  IC50: 35.2 ± 1.9 µM
other
  melting point: 190 to 192 °C
[2]; [8]
  IC50: 32.9 ± 2.3 µM
[3]; [9]
  IC50: 29.2 ± 2.3 µM
[4]; [10]
  IC50: 37.5 ± 2.5 µM
[5]; [11]
  IC50: 48.1 ± 2.4 µM
[6]; [12]
  IC50: 29.2 to 48.1 µM

## COc1ccc(C(=S)N2CCCCC2)cc1OC1CCCC1 [Compound 9b, (3-(Cyclopentyloxy)-4-methoxyphenyl)(piperidin-1-yl)methanethione]
[1]; [7]
  IC50: 37.1 ± 2 µM
other
  melting point: 193 to 195 °C
[2]; [8]
  IC50: 24.9 ± 1.9 µM
[3]; [9]
  IC50: 31.5 ± 2.4 µM
[4]; [10]
  IC50: 28.4 ± 2.3 µM
[5]; [11]
  IC50: 39.1 ± 2.2 µM
[6]; [12]
  IC50: 24.9 to 39.1 µM

## COc1ccc(-c2cc(-c3ccccc3)[nH]c(=O)c2C#N)cc1OC1CCCC1 [Compound 12a, 4-(3-(Cyclopentyloxy)-4-methoxyphenyl)-2-oxo-6-phenyl-1,2-dihydropyridine-3-carbonitrile]
[1]; [7]
  IC50: 71.6 ± 3.9 µM
other
  melting point: > 300 °C
[2]; [8]
  IC50: 45.2 ± 3.4 µM
[3]; [9]
  IC50: 79.8 ± 4 µM
[4]; [10]
  IC50: 65.7 ± 4.1 µM
[5]; [11]
  IC50: 76 ± 3.6 µM

## COc1ccc(-c2cc(-c3ccc(C)cc3)[nH]c(=O)c2C#N)cc1OC1CCCC1 [Compound 12b, 4-(3-(cyclopentyloxy)-4-methoxyphenyl)-2-oxo-6-(p-tolyl)-1,2-dihydropyridine-3-carbonitrile]
[1]; [7]
  IC50: 58.3 ± 2.7 µM
other
  melting point: > 300 °C
[2]; [8]
  IC50: 38.1 ± 2.8 µM
[3]; [9]
  IC50: 61.5 ± 3.3 µM
[4]; [10]
  IC50: 45.7 ± 3.2 µM
[5]; [11]
  IC50: 67.7 ± 3.5 µM

## COc1ccc(-c2cc(-c3ccc(Cl)c(Cl)c3)[nH]c(=O)c2C#N)cc1OC1CCCC1 [Compound 12c, 4-(3-(Cyclopentyloxy)-4-methoxyphenyl)-6-(3,4-dichlorophenyl)-2-oxo-1,2-dihydropyridine-3-carbonitrile]
[1]; [7]
  IC50: 66.1 ± 3.7 µM
other
  melting point: > 300 °C
[2]; [8]
  IC50: 59.6 ± 4 µM
[3]; [9]
  IC50: 73.5 ± 3.8 µM
[4]; [10]
  IC50: 62.8 ± 3.9 µM
[5]; [11]
  IC50: 83.4 ± 4.3 µM

## COc1cccc2c1C(=O)c1c(O)c3c(c(O)c1C2=O)C[C@@](O)(C(=O)CO)C[C@@H]3O[C@H]1C[C@H](N)[C@H](O)[C@H](C)O1 [DOX, doxorubicin, reference compound]
[6]; [12]
  IC50: 4.17 to 8.87 µM
